The target of this assay is T1, ERα (Homo sapiens, UniProt P03372).
T1 construct: host or cells: MCF7
T1 sequence (P03372 1-595): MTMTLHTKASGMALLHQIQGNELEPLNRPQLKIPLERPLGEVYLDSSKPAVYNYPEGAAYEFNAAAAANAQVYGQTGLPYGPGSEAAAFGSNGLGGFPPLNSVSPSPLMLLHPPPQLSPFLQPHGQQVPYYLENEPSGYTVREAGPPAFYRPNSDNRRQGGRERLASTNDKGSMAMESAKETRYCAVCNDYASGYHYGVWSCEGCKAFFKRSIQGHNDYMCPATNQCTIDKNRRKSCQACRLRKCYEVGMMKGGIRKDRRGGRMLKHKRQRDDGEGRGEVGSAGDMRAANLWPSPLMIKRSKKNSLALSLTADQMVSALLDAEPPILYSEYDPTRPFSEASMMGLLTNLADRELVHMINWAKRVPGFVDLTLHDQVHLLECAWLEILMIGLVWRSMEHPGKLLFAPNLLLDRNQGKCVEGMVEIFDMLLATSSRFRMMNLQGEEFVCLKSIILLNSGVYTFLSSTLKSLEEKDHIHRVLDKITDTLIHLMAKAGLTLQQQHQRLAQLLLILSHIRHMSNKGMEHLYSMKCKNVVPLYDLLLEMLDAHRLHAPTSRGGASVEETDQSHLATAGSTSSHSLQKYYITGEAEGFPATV
Kind of assay: Estrogen receptor degradation activity: breast cancer cell ERα in cell western assay (MCF7 cells). Type of assay: cell-based. The following applies: for % Degradation At 0.3 μM: 4 hours, relative to fulvestrant 0.1 μM positive control; for DC50: 4 hours post compound addition, concentration which degrades 50% of the estrogen receptor, read-out: Degradation IC50. Summed up:
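In-cell western readout: ERα immunofluorescence (Alexa 488) normalised to DNA signal (Syto-64) after formalin fixation. Compounds dosed for 4 h on MCF7 cells in stripped-serum, phenol-red-free medium over nine 1:5 steps, 0.3 to […] final; fulvestrant 0.1 μM control. IC50 in nM for 50% ERα degradation.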

With `O=C(O)c1ccc2c(c1)CCCC(c1cc(C(F)(F)F)ccc1F)=C2c1ccc(C=C2CN(CCCF)C2)cc1` [Example 121, 8-(2-fluoro-5-(trifluoromethyl)phenyl)-9-(4-((1-(3-fluoropropyl)azetidin-3-ylidene)methyl)phenyl)-6,7-dihydro-5H-benzo[7]annulene-3-carboxylic acid], the “% Degradation At 0.3 μM” value is 94% and the DC50 was 0.7 nM.
Taken in the same sequence, the figures for `[2H]C([2H])(CCF)N1CC(=Cc2ccc(C3=C(c4ccc(Cl)cc4Cl)CCCc4cc(C(=O)O)ccc43)cc2)C1` [Example 122, 8-(2,4-dichlorophenyl)-9-(4-((1-(3-fluoropropyl-1,1-d2)azetidin-3-ylidene)methyl)phenyl)-6,7-dihydro-5H-benzo[7]annulene-3-carboxylic acid] were 94% and 0.4 nM.
For `O=C(O)c1ccc2c(c1)CCCC(c1cc(F)cc(C(F)(F)F)c1Cl)=C2c1ccc(C=C2CN(CCCF)C2)cc1` [Example 123, 8-(2-chloro-5-fluoro-3-(trifluoromethyl)phenyl)-9-(4-((1-(3-fluoropropyl)azetidin-3-ylidene)methyl)phenyl)-6,7-dihydro-5H-benzo[7]annulene-3-carboxylic acid], the “% Degradation At 0.3 μM” value is 94% and the DC50 was 0.7 nM.
Taken in the same sequence, the figures for `O=C(O)c1ccc2c(c1)CCCC(c1ccc(F)c(C(F)(F)F)c1F)=C2c1ccc(C=C2CN(CCCF)C2)cc1` [Example 124, 8-(2,4-difluoro-3-(trifluoromethyl)phenyl)-9-(4-((1-(3-fluoropropyl)azetidin-3-ylidene)methyl)phenyl)-6,7-dihydro-5H-benzo[7]annulene-3-carboxylic acid] were 93% and 1.2 nM.
With `O=C(O)c1ccc2c(c1)CCCC(c1ncc(Cl)cc1C(F)(F)F)=C2c1ccc(C=C2CN(CCC(F)F)C2)cc1` [Example 125, 8-(5-chloro-3-(trifluoromethyl)pyridin-2-yl)-9-(4-((1-(3,3-difluoropropyl)azetidin-3-ylidene)methyl)phenyl)-6,7-dihydro-5H-benzo[7]annulene-3-carboxylic acid], the “% Degradation At 0.3 μM” value was found to be 91% and the DC50 was found to be 0.7 nM.
For `Cc1c(Cl)cccc1C1=C(c2ccc(C=C3CN(CCC(F)F)C3)cc2)c2ccc(C(=O)O)cc2CCC1` [Example 126, 8-(3-chloro-2-methylphenyl)-9-(4-((1-(3,3-difluoropropyl)azetidin-3-ylidene)methyl)phenyl)-6,7-dihydro-5H-benzo[7]annulene-3-carboxylic acid], the “% Degradation At 0.3 μM” value came to 93% and the DC50 amounted to 0.5 nM.
For `Cc1c(C2=C(c3ccc(C=C4CN(CCC(F)F)C4)cc3)c3ccc(C(=O)O)cc3CCC2)ccc(Cl)c1F` [Example 127, 8-(4-chloro-3-fluoro-2-methylphenyl)-9-(4-((1-(3,3-difluoropropyl)azetidin-3-ylidene)methyl)phenyl)-6,7-dihydro-5H-benzo[7]annulene-3-carboxylic acid], the “% Degradation At 0.3 μM” value was found to be 93% and the DC50 came out at 0.6 nM.
Taken in the same sequence, the figures for `O=C(O)c1ccc2c(c1)CCCC(c1ccc(Cl)cc1C(F)(F)F)=C2c1ccc(C=C2CN(CCC(F)F)C2)cc1` [Example 128, 8-(4-chloro-2-(trifluoromethyl)phenyl)-9-(4-((1-(3,3-difluoropropyl)azetidin-3-ylidene)methyl)phenyl)-6,7-dihydro-5H-benzo[7]annulene-3-carboxylic acid] were 93% and 1.1 nM.
Taken in the same sequence, the figures for `O=C(O)c1ccc2c(c1)CCCC(c1cccc(C(F)(F)F)c1F)=C2c1ccc(C=C2CN(CCC(F)F)C2)cc1` [Example 129, 9-(4-((1-(3,3-difluoropropyl)azetidin-3-ylidene)methyl)phenyl)-8-(2-fluoro-3-(trifluoromethyl)phenyl)-6,7-dihydro-5H-benzo[7]annulene-3-carboxylic acid] were 94% and 1 nM.
Regarding `Cc1c(F)ccc(C2=C(c3ccc(C=C4CN(CCC(F)F)C4)cc3)c3ccc(C(=O)O)cc3CCC2)c1C` [Example 130, 9-(4-((1-(3,3-difluoropropyl)azetidin-3-ylidene)methyl)phenyl)-8-(4-fluoro-2,3-dimethylphenyl)-6,7-dihydro-5H-benzo[7]annulene-3-carboxylic acid], the “% Degradation At 0.3 μM” value was 96% and the DC50 was found to be 1.6 nM.
Consider `Cc1cccc(C2=C(c3ccc(C=C4CN(CCC(F)F)C4)cc3)c3ccc(C(=O)O)cc3CCC2)c1Cl` [Example 131, 8-(2-chloro-3-methylphenyl)-9-(4-((1-(3,3-difluoropropyl)azetidin-3-ylidene)methyl)phenyl)-6,7-dihydro-5H-benzo[7]annulene-3-carboxylic acid], for which the “% Degradation At 0.3 μM” value is listed as 95% and the DC50 worked out at 1.1 nM.
Taken in the same sequence, the figures for `Cc1cc(Cl)ccc1C1=C(c2ccc(C=C3CN(CCC(F)F)C3)cc2)c2ccc(C(=O)O)cc2CCC1` [Example 132, 8-(4-chloro-2-methylphenyl)-9-(4-((1-(3,3-difluoropropyl)azetidin-3-ylidene)methyl)phenyl)-6,7-dihydro-5H-benzo[7]annulene-3-carboxylic acid] were 95% and 0.8 nM.
Taken in the same sequence, the figures for `O=C(O)c1ccc2c(c1)CCCC(c1cccc(C(F)(F)F)c1Cl)=C2c1ccc(C=C2CN(CCC(F)F)C2)cc1` [Example 133, 8-(2-chloro-3-(trifluoromethyl)phenyl)-9-(4-((1-(3,3-difluoropropyl)azetidin-3-ylidene)methyl)phenyl)-6,7-dihydro-5H-benzo[7]annulene-3-carboxylic acid] were 92% and 1 nM.
Taken in the same sequence, the figures for `Cc1c(C2=C(c3ccc(C=C4CN(CCC(F)F)C4)cc3)c3ccc(C(=O)O)cc3CCC2)cccc1C(F)(F)F` [Example 134, 9-(4-((1-(3,3-difluoropropyl)azetidin-3-ylidene)methyl)phenyl)-8-(2-methyl-3-(trifluoromethyl)phenyl)-6,7-dihydro-5H-benzo[7]annulene-3-carboxylic acid] were 93% and 1.1 nM.
On to `O=C(O)c1ccc2c(c1)CCCC(c1ccc(F)c(F)c1F)=C2c1ccc(C=C2CN(CCCF)C2)cc1` [Example 135, 9-(4-((1-(3-fluoropropyl)azetidin-3-ylidene)methyl)phenyl)-8-(2,3,4-trifluorophenyl)-6,7-dihydro-5H-benzo[7]annulene-3-carboxylic acid], for which the “% Degradation At 0.3 μM” value came to 96% and the DC50 was determined as 0.5 nM.
Taken in the same sequence, the figures for `Cc1ccc(C(F)(F)F)cc1C1=C(c2ccc(C=C3CN(CCCF)C3)cc2)c2ccc(C(=O)O)cc2CCC1` [Example 136, 9-(4-((1-(3-fluoropropyl)azetidin-3-ylidene)methyl)phenyl)-8-(2-methyl-5-(trifluoromethyl)phenyl)-6,7-dihydro-5H-benzo[7]annulene-3-carboxylic acid] were 92% and 0.8 nM.
Taken in the same sequence, the figures for `COc1ccc(C(F)(F)F)cc1C1=C(c2ccc(C=C3CN(CCCF)C3)cc2)c2ccc(C(=O)O)cc2CCC1` [Example 137] were 92% and 3.7 nM.
Taken in the same sequence, the figures for `Cc1cc(F)ccc1C1=C(c2ccc(C=C3CN(CCCF)C3)cc2C(F)(F)F)c2ccc(C(=O)O)cc2CCC1` [Example 138, 8-(4-fluoro-2-methylphenyl)-9-(4-((1-(3-fluoropropyl)azetidin-3-ylidene)methyl)-2-(trifluoromethyl)phenyl)-6,7-dihydro-5H-benzo[7]annulene-3-carboxylic acid] were 95% and 1.8 nM.
Consider `Cc1cc(F)ccc1C1=C(c2ccc(C=C3CN(CCCF)C3)cc2C#N)c2ccc(C(=O)O)cc2CCC1` [Example 139, 9-(2-cyano-4-((1-(3-fluoropropyl)azetidin-3-ylidene)methyl)phenyl)-8-(4-fluoro-2-methylphenyl)-6,7-dihydro-5H-benzo[7]annulene-3-carboxylic acid], for which the “% Degradation At 0.3 μM” value stood at 97% and the DC50 is 3.1 nM.
Taken in the same sequence, the figures for `O=C(O)c1ccc2c(c1)CCCC(c1cc(C(F)(F)F)ccc1Cl)=C2c1ccc(C=C2CN(CCCF)C2)cc1` [Example 140, 8-(2-chloro-5-(trifluoromethyl)phenyl)-9-(4-((1-(3-fluoropropyl)azetidin-3-ylidene)methyl)phenyl)-6,7-dihydro-5H-benzo[7]annulene-3-carboxylic acid] were 92% and 0.5 nM.
Taken in the same sequence, the figures for `O=C(O)c1ccc2c(c1)CCCC(c1ccc(C3CC3)cc1C(F)(F)F)=C2c1ccc(C=C2CN(CCCF)C2)cc1` [Example 141, 8-(4-cyclopropyl-2-(trifluoromethyl)phenyl)-9-(4-((1-(3-fluoropropyl)azetidin-3-ylidene)methyl)phenyl)-6,7-dihydro-5H-benzo[7]annulene-3-carboxylic acid] were 88% and 0.4 nM.

The values above are taken from US12612360B2 (Sanofi, priority 2020, dated 2026).
